Measurements taken from US20230085307A1, “PYRIDAZINONE COMPOUND AND HERBICIDE” (NISSAN CHEMICAL CORPORATION, priority 2019, published 2023).

Columns and labels:
barnyard grass [1] = experiment: Test Example 3: herbicidal effect by foliage application, Wagner pot (Table 18, symbol H); format: in vivo, barnyard grass (Echinochloa crus-galli); conditions: 320 g/ha
Method in brief: (§1)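 Plants were sown in alluvial soil held under 0.1–0.5 cm standing water and grown 14 days in a greenhouse at 25–30 °C. An emulsifiable formulation, water-diluted to the set dose, was then sprayed onto the foliage, and effects were scored three weeks later using previously defined criteria.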

Chinese sprangletop = experiment: Test Example 3: herbicidal effect by foliage application, Wagner pot (Table 18, symbol D); format: in vivo, chinese sprangletop (Leptochloa chinensis); conditions: 320 g/ha
Method in brief: as §1

rice flat sedge = experiment: Test Example 3: herbicidal effect by foliage application, Wagner pot (Table 18, symbol E); format: in vivo, rice flat sedge (Cyperus iria); conditions: 320 g/ha
Method in brief: as §1

southern crabgrass [2] = experiment: Test Example 4: herbicidal effect by soil treatment (Table 19, symbol F); format: in vivo, southern crabgrass (Digitaria ciliaris); conditions: amount of applied herbicide 320 g/ha
Method in brief: (§2)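 Emulsion of test compound, water-diluted to predetermined amount, sprayed on soil after sowing (seed depth ~1.5 cm, sterilized diluvial soil). Greenhouse, 25–30° C. Effect graded at three weeks post-spray.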

green foxtail [3] = experiment: Test Example 4: herbicidal effect by soil treatment (Table 19, symbol G); format: in vivo, green foxtail (Setaria viridis); conditions: amount of applied herbicide 320 g/ha
Method in brief: as §2

barnyard grass [4] = experiment: Test Example 4: herbicidal effect by soil treatment (Table 19, symbol H); format: in vivo, barnyard grass (Echinochloa crus-galli); conditions: amount of applied herbicide 320 g/ha
Method in brief: as §2

wild oat [5] = experiment: Test Example 4: herbicidal effect by soil treatment (Table 19, symbol I); format: in vivo, wild oat (Avena fatua); conditions: amount of applied herbicide 320 g/ha
Method in brief: as §2

Italian ryegrass [6] = experiment: Test Example 4: herbicidal effect by soil treatment (Table 19, symbol K); format: in vivo, Italian ryegrass (Lolium multiflorum); conditions: amount of applied herbicide 320 g/ha
Method in brief: as §2

windgrass [7] = experiment: Test Example 4: herbicidal effect by soil treatment (Table 19, symbol L); format: in vivo, windgrass (Apera spica-venti); conditions: amount of applied herbicide 320 g/ha
Method in brief: as §2

velvetleaf [8] = experiment: Test Example 4: herbicidal effect by soil treatment (Table 19, symbol M); format: in vivo, velvetleaf (Abutilon theophrasti); conditions: amount of applied herbicide 320 g/ha
Method in brief: as §2

redroot pigweed [9] = experiment: Test Example 4: herbicidal effect by soil treatment (Table 19, symbol N); format: in vivo, redroot pigweed (Amaranthus retroflexus); conditions: amount of applied herbicide 320 g/ha
Method in brief: as §2

lambsquarters [10] = experiment: Test Example 4: herbicidal effect by soil treatment (Table 19, symbol O); format: in vivo, lambsquarters (Chenopodium album); conditions: amount of applied herbicide 320 g/ha
Method in brief: as §2

chickweed [11] = experiment: Test Example 4: herbicidal effect by soil treatment (Table 19, symbol P); format: in vivo, common chickweed (Stellaria media); conditions: amount of applied herbicide 320 g/ha
Method in brief: as §2

persian speedwell [12] = experiment: Test Example 4: herbicidal effect by soil treatment (Table 19, symbol R); format: in vivo, Persian speedwell (Veronica persica); conditions: amount of applied herbicide 320 g/ha
Method in brief: as §2

southern crabgrass [13] = experiment: Test Example 5: herbicidal effect by foliage application, plastic box (Table 20, symbol F); format: in vivo, southern crabgrass (Digitaria ciliaris); conditions: 320 g/ha, foliage application after 14-day growth, evaluated three weeks after application
Method in brief: (§3)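 Post-emergence foliar test in sterilized diluvial soil. Compound applied as water-diluted emulsion at a predetermined rate to 14-day-old plants; evaluation at three weeks.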

green foxtail [14] = experiment: Test Example 5: herbicidal effect by foliage application, plastic box (Table 20, symbol G); format: in vivo, green foxtail (Setaria viridis); conditions: 320 g/ha, foliage application after 14-day growth, evaluated three weeks after application
Method in brief: as §3

barnyard grass [15] = experiment: Test Example 5: herbicidal effect by foliage application, plastic box (Table 20, symbol H); format: in vivo, barnyard grass (Echinochloa crus-galli); conditions: 320 g/ha, foliage application after 14-day growth, evaluated three weeks after application
Method in brief: as §3

wild oat [16] = experiment: Test Example 5: herbicidal effect by foliage application, plastic box (Table 20, symbol I); format: in vivo, wild oat (Avena fatua); conditions: 320 g/ha, foliage application after 14-day growth, evaluated three weeks after application
Method in brief: as §3

blackgrass = experiment: Test Example 5: herbicidal effect by foliage application, plastic box (Table 20, symbol J); format: in vivo, blackgrass (Alopecurus myosuroides); conditions: 320 g/ha, foliage application after 14-day growth, evaluated three weeks after application
Method in brief: as §3

Italian ryegrass [17] = experiment: Test Example 5: herbicidal effect by foliage application, plastic box (Table 20, symbol K); format: in vivo, Italian ryegrass (Lolium multiflorum); conditions: 320 g/ha, foliage application after 14-day growth, evaluated three weeks after application
Method in brief: as §3

windgrass [18] = experiment: Test Example 5: herbicidal effect by foliage application, plastic box (Table 20, symbol L); format: in vivo, windgrass (Apera spica-venti); conditions: 320 g/ha, foliage application after 14-day growth, evaluated three weeks after application
Method in brief: as §3

velvetleaf [19] = experiment: Test Example 5: herbicidal effect by foliage application, plastic box (Table 20, symbol M); format: in vivo, velvetleaf (Abutilon theophrasti); conditions: 320 g/ha, foliage application after 14-day growth, evaluated three weeks after application
Method in brief: as §3

redroot pigweed [20] = experiment: Test Example 5: herbicidal effect by foliage application, plastic box (Table 20, symbol N); format: in vivo, redroot pigweed (Amaranthus retroflexus); conditions: 320 g/ha, foliage application after 14-day growth, evaluated three weeks after application
Method in brief: as §3

lambsquarters [21] = experiment: Test Example 5: herbicidal effect by foliage application, plastic box (Table 20, symbol O); format: in vivo, lambsquarters (Chenopodium album); conditions: 320 g/ha, foliage application after 14-day growth, evaluated three weeks after application
Method in brief: as §3

chickweed [22] = experiment: Test Example 5: herbicidal effect by foliage application, plastic box (Table 20, symbol P); format: in vivo, common chickweed (Stellaria media); conditions: 320 g/ha, foliage application after 14-day growth, evaluated three weeks after application
Method in brief: as §3

persian speedwell [23] = experiment: Test Example 5: herbicidal effect by foliage application, plastic box (Table 20, symbol R); format: in vivo, Persian speedwell (Veronica persica); conditions: 320 g/ha, foliage application after 14-day growth, evaluated three weeks after application
Method in brief: as §3

**Q.** Which “herbicidal effect on barnyard grass (H)” value (barnyard grass [1]) does the source give for `Cc1nn(C)c(=O)c(-c2c(-c3ccc(OC(F)F)cc3)sc3c(F)cccc23)c1O` [4-046] here?
**A.** Its value is 5 (Herbicidal rate of 90% or more (almost completely withered)).

**Q.** What about the “herbicidal effect on Chinese sprangletop (D)” value (Chinese sprangletop) of the same compound?
**A.** Its value is 1 (Herbicidal rate of 5% or more and less than 20%).

**Q.** And the “herbicidal effect on rice flat sedge (E)” value (rice flat sedge)?
**A.** Its value is 5 (Herbicidal rate of 90% or more (almost completely withered)).

**Q.** What about the “Herbicidal effect by soil treatment, F: southern crabgrass” value (southern crabgrass [2]) of the same compound?
**A.** The value was 0 (Herbicidal rate of 5% or less (almost no effect)).

**Q.** And the “Herbicidal effect by soil treatment, G: green foxtail” value (green foxtail [3])?
**A.** The value was 3 (Herbicidal rate of 40% or more and less than 70%).

**Q.** What about the “Herbicidal effect by soil treatment, H: barnyard grass” value (barnyard grass [4]) of the same compound?
**A.** The value was 3 (Herbicidal rate of 40% or more and less than 70%).

**Q.** What about the “Herbicidal effect by soil treatment, I: wild oat” value (wild oat [5]) of the same compound?
**A.** The value was 0 (Herbicidal rate of 5% or less (almost no effect)).

**Q.** And the “Herbicidal effect by soil treatment, K: Italian ryegrass” value (Italian ryegrass [6])?
**A.** Its value is 3 (Herbicidal rate of 40% or more and less than 70%).

**Q.** And the “Herbicidal effect by soil treatment, L: windgrass” value (windgrass [7])?
**A.** The value was 0 (Herbicidal rate of 5% or less (almost no effect)).

**Q.** And the “Herbicidal effect by soil treatment, M: velvetleaf” value (velvetleaf [8])?
**A.** Its value is 3 (Herbicidal rate of 40% or more and less than 70%).

**Q.** And the “Herbicidal effect by soil treatment, N: redroot pigweed” value (redroot pigweed [9])?
**A.** Its value is 5 (Herbicidal rate of 90% or more (almost completely withered)).

**Q.** What about the “Herbicidal effect by soil treatment, O: lambsquarters” value (lambsquarters [10]) of the same compound?
**A.** The value was 1 (Herbicidal rate of 5% or more and less than 20%).

**Q.** And the “Herbicidal effect by soil treatment, P: chickweed” value (chickweed [11])?
**A.** Its value is 3 (Herbicidal rate of 40% or more and less than 70%).

**Q.** What about the “Herbicidal effect by soil treatment, R: persian speedwell” value (persian speedwell [12]) of the same compound?
**A.** The value was 5 (Herbicidal rate of 90% or more (almost completely withered)).

**Q.** What about the “herbicidal effect on F: southern crabgrass (evaluation grade 0-5)” value (southern crabgrass [13]) of the same compound?
**A.** The value was 0 (Herbicidal rate of 5% or less (almost no effect)).

**Q.** And the “herbicidal effect on G: green foxtail (evaluation grade 0-5)” value (green foxtail [14])?
**A.** Its value is 5 (Herbicidal rate of 90% or more (almost completely withered)).

**Q.** What about the “herbicidal effect on H: barnyard grass (evaluation grade 0-5)” value (barnyard grass [15]) of the same compound?
**A.** The value was 5 (Herbicidal rate of 90% or more (almost completely withered)).

**Q.** What about the “herbicidal effect on I: wild oat (evaluation grade 0-5)” value (wild oat [16]) of the same compound?
**A.** The value was 4 (Herbicidal rate of 70% or more and less than 90%).

**Q.** What about the “herbicidal effect on J: blackgrass (evaluation grade 0-5)” value (blackgrass) of the same compound?
**A.** The value was 4 (Herbicidal rate of 70% or more and less than 90%).

**Q.** What about the “herbicidal effect on K: Italian ryegrass (evaluation grade 0-5)” value (Italian ryegrass [17]) of the same compound?
**A.** The value was 5 (Herbicidal rate of 90% or more (almost completely withered)).

**Q.** What about the “herbicidal effect on L: windgrass (evaluation grade 0-5)” value (windgrass [18]) of the same compound?
**A.** Its value is 5 (Herbicidal rate of 90% or more (almost completely withered)).

**Q.** What about the “herbicidal effect on M: velvetleaf (evaluation grade 0-5)” value (velvetleaf [19]) of the same compound?
**A.** Its value is 5 (Herbicidal rate of 90% or more (almost completely withered)).

**Q.** And the “herbicidal effect on N: redroot pigweed (evaluation grade 0-5)” value (redroot pigweed [20])?
**A.** The value was 5 (Herbicidal rate of 90% or more (almost completely withered)).

**Q.** What about the “herbicidal effect on O: lambsquarters (evaluation grade 0-5)” value (lambsquarters [21]) of the same compound?
**A.** The value was 5 (Herbicidal rate of 90% or more (almost completely withered)).

**Q.** And the “herbicidal effect on P: chickweed (evaluation grade 0-5)” value (chickweed [22])?
**A.** The value was 5 (Herbicidal rate of 90% or more (almost completely withered)).

**Q.** What about the “herbicidal effect on R: persian speedwell (evaluation grade 0-5)” value (persian speedwell [23]) of the same compound?
**A.** The value was 5 (Herbicidal rate of 90% or more (almost completely withered)).
